Source: patent US20190134005A1 (BioMarin Pharmaceutical Inc., priority 2016, published 2019)
Like-named read-outs stand apart in the source and are kept apart here.

Target: T1, human CGT (Homo sapiens, UniProt Q16880)
T1 sequence (Q16880 21-541): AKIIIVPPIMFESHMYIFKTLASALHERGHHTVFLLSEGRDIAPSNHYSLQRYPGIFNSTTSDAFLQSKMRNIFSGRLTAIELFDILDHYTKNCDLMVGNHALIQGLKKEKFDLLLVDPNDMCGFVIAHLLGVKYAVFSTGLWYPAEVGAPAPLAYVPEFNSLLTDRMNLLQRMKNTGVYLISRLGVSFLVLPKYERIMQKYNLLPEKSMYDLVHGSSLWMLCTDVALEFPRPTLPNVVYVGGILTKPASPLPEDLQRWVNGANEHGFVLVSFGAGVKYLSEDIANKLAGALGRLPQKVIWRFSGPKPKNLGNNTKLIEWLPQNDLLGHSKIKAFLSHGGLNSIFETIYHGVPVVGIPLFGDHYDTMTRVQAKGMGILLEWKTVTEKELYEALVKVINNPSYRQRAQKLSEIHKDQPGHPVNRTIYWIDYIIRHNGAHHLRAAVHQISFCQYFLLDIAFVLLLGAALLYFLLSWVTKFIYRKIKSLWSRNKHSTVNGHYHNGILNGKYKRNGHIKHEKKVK
Test: Assay 1: CGT Enzymatic Assay (RapidFire/MS/MS, 0.01% Tween 80)
Type: biochemical
Details: Table 1, Compounds of Formula (I) and Formula (II), CGT enzymatic assay, read-out: IC50

[1] = C6-NBD-dihydro-galactosylceramide readout

Row | IC50 | IC50 [1] | SMILES
1 | > 50 µM |  | O=C1N(c2ccccc2)CC(O)(c2ccccc2)N1c1ccccc1 (stereo not shown) [Example 21, 4-hydroxy-1,3,4-triphenylimidazolidin-2-one]
2 | < 1 µM |  | N#Cc1cccc(C2(O)[C@@H](C3CC3)N(c3ccc(Cl)cc3)C(=O)N2c2ccc(Cl)cc2)c1 (stereo partly drawn) [Example 187-2, 3-((5R)-1,3-bis(4-chlorophenyl)-5-cyclopropyl-4-hydroxy-2-oxoimidazolidin-4-yl)benzonitrile]
3 | 10 to 50 µM |  | CC[C@@]1(C)N(c2ccc(Cl)cc2)C(=O)N(c2ccc(Cl)cc2)C1(O)c1cccc(C#N)c1 (single isomer, unassigned) [Example 185-1]
4 | < 1 µM |  | CN(C)C[C@H]1N(c2ccc(Cl)cc2)C(=O)N(c2ccc(Cl)cc2)C1(O)c1cccc(OC(F)(F)F)c1 (single isomer, unassigned) [Example 166-2]
5 | < 1 µM |  | Cc1cc(C)cc(C2(O)C(C)N(c3ccc(Br)cc3)C(=O)N2c2ccc(Br)cc2)c1 (stereo not shown) [Example 42]
6 | 50 to 100 µM |  | O=C1N(c2ccc(Br)cc2)CC(O)(c2cc3ccccc3s2)N1c1ccc(Br)cc1 (stereo not shown) [Example 8, 4-(benzo[b]thiophen-2-yl)-1,3-bis(4-bromophenyl)-4-hydroxyimidazolidin-2-one]
7 | < 1 µM |  | N#Cc1cccc(C2(O)N(c3ccc(Cl)cc3)C(=O)N(c3ccc(Cl)cc3)C23CCOC3)c1 (stereo not shown) [Example 221, 3-(1,3-bis(4-chlorophenyl)-4-hydroxy-2-oxo-7-oxa-1,3-diazaspiro[4.4]nonan-4-yl)benzonitrile]
8 | < 1 µM |  | CC1(C)N(c2ccc(Cl)cc2)C(=O)N(c2ccc(Cl)cc2)C1(O)c1cc(Br)cc(C#N)c1 (stereo not shown) [Example 158, 3-(1,3-bis(4-chlorophenyl)-4-hydroxy-5,5-dimethyl-2-oxoimidazolidin-4-yl)-5-bromobenzonitrile]
9 | > 50 µM |  | O=C1N(c2ccc(Br)cc2)C(=O)C(O)(c2ccc(OCC3CC3)cc2)N1c1ccc(Br)cc1 (stereo not shown) [Example 184, 1,3-bis(4-bromophenyl)-5-(4-(cyclopropylmethoxy)phenyl)-5-hydroxyimidazolidine-2,4-dione]
10 | < 1 µM |  | O=C1N(c2ccc(Cl)cc2)C(C2CCC2)C(O)(c2cccc(OC(F)(F)F)c2)N1c1ccc(Cl)cc1 (stereo not shown) [Example 191, 1,3-bis(4-chlorophenyl)-5-cyclobutyl-4-hydroxy-4-(3-(trifluoromethoxy)phenyl)imidazolidin-2-one]
11 | < 1 µM |  | N#Cc1cccc(C2(O)[C@@H](C3CCC3)N(c3ccc(Cl)cc3)C(=O)N2c2ccc(Cl)cc2)c1 (stereo partly drawn) [Example 194-2, 3-((5R)-1,3-bis(4-chlorophenyl)-5-cyclobutyl-4-hydroxy-2-oxoimidazolidin-4-yl)benzonitrile]
12 | > 50 µM |  | CCCCCCCCC1(O)C(=O)N(c2ccc(Br)cc2)C(=O)N1c1ccc(Br)cc1 (stereo not shown) [Example 199, 1,3-bis(4-bromophenyl)-5-hydroxy-5-octylimidazolidine-2,4-dione]
13 | 1 to 10 µM |  | O=C1N(c2ccc(Cl)cc2)CC(O)(c2cccc(Br)c2)N1c1ccc(Cl)cc1 (stereo not shown) [Example 55, 4-(3-bromophenyl)-1,3-bis(4-chlorophenyl)-4-hydroxyimidazolidin-2-one]
14 | 1 to 10 µM |  | Cc1cccc(C2(O)[C@@H](C)N(c3ccc(Cl)cc3)C(=O)N2c2ccc(Cl)cc2)c1 (stereo partly shown) [Example 36-2]
15 | 1 to 10 µM |  | O=C1N(c2ccc(Cl)cc2)CC(O)(c2ccccc2)N1c1ccc(Cl)cc1 (stereo not shown) [Example 12, 1,3-bis(4-chlorophenyl)-4-hydroxy-4-phenylimidazolidin-2-one]
16 | < 1 µM |  | O=C1N(c2ccc(Br)cc2)C(O)[C@](c2ccccc2)(C2CC2)N1c1ccc(Br)cc1 (stereo partly drawn) [Example 209-2, (4R)-1,3-bis(4-bromophenyl)-4-cyclopropyl-5-hydroxy-4-phenylimidazolidin-2-one]
17 | < 1 µM |  | CCc1c(-c2cccc(C(F)(F)F)c2)n(-c2ccc(Cl)cc2)c(=O)n1-c1ccc(Cl)cc1 [Example 40, 1,3-bis(4-chlorophenyl)-4-ethyl-5-(3-(trifluoromethyl)phenyl)-1,3-dihydro-2H-imidazol-2-one]
18 | < 1 µM |  | CC1N(c2ccc(Br)cc2)C(=O)N(c2ccc(Br)cc2)C1(O)c1ccccc1 (stereo not shown) [Example 13]

The next lines start with the molecule.

Row | SMILES | IC50 | IC50 [1]
19 | CC(O)c1cccc(C2(O)C(C)N(c3ccc(Cl)cc3)C(=O)N2c2ccc(Cl)cc2)c1 (stereo not shown) [Compound 137, 1,3-bis(4-chlorophenyl)-4-hydroxy-4-(3-(1-hydroxyethyl)phenyl)-5-methylimidazolidin-2-one] | < 1 µM | 
20 | N#Cc1cc(Cl)cc(-c2cn(-c3ccc(Cl)cc3)c(=O)n2-c2ccc(Cl)cc2)c1 [Compound 265, 3-(1,3-bis(4-chlorophenyl)-2-oxo-2,3-dihydro-1H-imidazol-4-yl)-5-chlorobenzonitrile] | > 50 µM | 
21 | C[C@@]1(c2ccccc2)N(c2ccc(Cl)cc2)C(=O)N(c2ccc(Cl)cc2)[C@]1(O)c1ccccc1 [Compound 121-1, (4S,5S)-1,3-bis(4-chlorophenyl)-4-hydroxy-5-methyl-4,5-diphenylimidazolidin-2-one] | 10 to 50 µM | 
22 | N#Cc1ccc(N2C(=O)N(c3ccc(C#N)cc3)C(O)(c3cccc(OC(F)(F)F)c3)C23CCC3)cc1 (stereo not shown) [Compound 293, 4,4′-(8-hydroxy-6-oxo-8-(3-(trifluoromethoxy)phenyl)-5,7-diazaspiro[3.4]octane-5,7-diyl)dibenzonitrile] |  | < 1 µM
23 | CC(C)c1ccc(C2(O)C(=O)N(c3ccccc3)C(=O)N2c2ccccc2)cc1 (stereo not shown) [Compound 153, 5-hydroxy-5-(4-isopropylphenyl)-1,3-diphenylimidazolidine-2,4-dione] | > 50 µM | 
24 | O=C1N(c2ccc(Br)cc2)C(=O)C(O)(c2ccc3ccccc3c2)N1c1ccc(Br)cc1 (stereo not shown) [Compound 148, 1,3-bis(4-bromophenyl)-5-hydroxy-5-(naphthalen-2-yl)imidazolidine-2,4-dione] | 50 to 100 µM | 
25 | CCc1cccc(C2(O)[C@@H](C)N(c3ccc(Cl)cc3)C(=O)N2c2ccc(Cl)cc2)c1 (stereo partly drawn) [Compound 69-2, (5R)-1,3-bis(4-chlorophenyl)-4-(3-ethylphenyl)-4-hydroxy-5-methylimidazolidin-2-one] | < 1 µM | 
26 | Cc1ccc(N2C(=O)N(c3ccc(C)cc3)C(O)(c3cccc(OC(F)(F)F)c3)[C@H]2C(C)C)cc1 (single isomer, unassigned) [Compound 235-2] | < 1 µM | 
27 | C[C@@H]1N(c2ccc(Cl)cc2)C(=O)N(c2ccc(Cl)cc2)C1(O)c1cccc(C#N)c1 (single isomer, unassigned) [Compound 99-1] | < 1 µM | 
28 | COC[C@@]1(C)N(c2ccc(Cl)cc2)C(=O)N(c2ccc(Cl)cc2)C1(O)c1cccc(C#N)c1 (single isomer, unassigned) [Compound 297-1] |  | < 1 µM
29 | CC(F)(F)c1cccc(C2(O)N(c3ccc(Cl)cc3)C(=O)N(c3ccc(Cl)cc3)C23COC3)c1 (stereo not shown) [Compound 271, 5,7-bis(4-chlorophenyl)-8-(3-(1,1-difluoroethyl)phenyl)-8-hydroxy-2-oxa-5,7-diazaspiro[3.4]octan-6-one] |  | < 1 µM
30 | N#Cc1ccc(N2C(=O)N(c3ccc(Cl)cc3)C(O)(c3cccc(OC(F)(F)F)c3)C23CCC3)cc1 (stereo not shown) [Compound 269, 4-(7-(4-chlorophenyl)-8-hydroxy-6-oxo-8-(3-(trifluoromethoxy)phenyl)-5,7-diazaspiro[3.4]octan-5-yl)benzonitrile] |  | < 1 µM
31 | CCCC1N(c2ccc(Cl)cc2)C(=O)N(c2ccc(Cl)cc2)C1(O)c1cccc(C(F)(F)F)c1 (stereo not shown) [Compound 87, 1,3-bis(4-chlorophenyl)-4-hydroxy-5-propyl-4-(3-(trifluoromethyl)phenyl)imidazolidin-2-one] | < 1 µM | 
32 | N#Cc1ccc(N2C(=O)N(c3ccc(Br)cc3)C(O)(c3cccc(C#N)c3)C23CCC3)cc1 (stereo not shown) [Compound 295, 3-(7-(4-bromophenyl)-5-(4-cyanophenyl)-8-hydroxy-6-oxo-5,7-diazaspiro[3.4]octan-8-yl)benzonitrile] |  | < 1 µM
33 | C[C@H]1N(c2ccc(Cl)cc2)C(=O)N(c2ccc(Cl)cc2)C1(O)c1cccc(C(C)(C)O)c1 (stereo partly drawn) [Compound 140-2, (5R)-1,3-bis(4-chlorophenyl)-4-hydroxy-4-(3-(2-hydroxypropan-2-yl)phenyl)-5-methylimidazolidin-2-one] | 1 to 10 µM | 
34 | C[C@@]1(c2ccccc2)N(c2ccc(Cl)cc2)C(=O)N(c2ccc(Cl)cc2)[C@@]1(O)c1ccccc1 [Compound 121-2, (4R,5S)-1,3-bis(4-chlorophenyl)-4-hydroxy-5-methyl-4,5-diphenylimidazolidin-2-one] | > 50 µM | 
35 | CCC[C@@H]1N(c2ccc(Cl)cc2)C(=O)N(c2ccc(Cl)cc2)C1(O)c1cccc(CC)c1 (stereo partly drawn) [Compound 89-1, (5S)-1,3-bis(4-chlorophenyl)-4-(3-ethylphenyl)-4-hydroxy-5-propylimidazolidin-2-one] | < 1 µM | 
36 | Cc1ccc(N2C(=O)N(c3ccc(C)cc3)C(O)(c3cccc(OC(F)(F)F)c3)C23CCC3)cc1 (stereo not shown) [Compound 239, 8-hydroxy-5,7-di-p-tolyl-8-(3-(trifluoromethoxy)phenyl)-5,7-diazaspiro[3.4]octan-6-one] | < 1 µM | 
37 | O=C1N(c2ccc(Cl)cc2)[C@@]2(CCOC2)[C@](O)(c2cccc(OC(F)(F)F)c2)N1c1ccc(Cl)cc1 [Compound 234-3, (4R,5R)-1,3-bis(4-chlorophenyl)-4-hydroxy-4-(3-(trifluoromethoxy)phenyl)-7-oxa-1,3-diazaspiro[4.4]nonan-2-one] | < 1 µM | 
